Laboratory results published in patent US20240368120A1 (Terns Pharmaceuticals, Inc., priority 2023, published 2024).

Columns and labels:
[1] = target: T1, human GLP-1R receptor (Homo sapiens, UniProt P43220); assay: GLP-1R low expression cell assay (cAMP TR-FRET, CHO-K1_hGLP-1Rlow_clone10 cells); format: cell-based; details: for EC50: cAMP TR-FRET, 30 min at 25° C.; for Emax: maximum activation relative to control GLP-1 peptide agonist
T1 construct: expressed in transfected cells
How it was run: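 Readout is cAMP TR-FRET after 30 min compound stimulation at 25 °C of a low-GLP-1R-expressing CHO-K1 clone (1,000 cells/well), with 10-point 3-fold serial dilutions. Percent activation versus a control GLP-1 peptide, from duplicates, was Hill-fitted to give EC50.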

[2] = test system: human hepatocytes; assay: Metabolic stability in human hepatocytes; format: in vitro ADME; details: predicted hepatic clearance, well stirred method
Method: (§1) Test compounds were incubated in rat and human hepatocytes and stability was assessed from the substrate […] approach. Test compounds were dissolved in dimethyl sulfoxide (DMSO) to create a 10 mM Stock, and then further diluted to create a 1000× Working Stock of 1 mM with DMSO in 96-well plates for test compounds and the positive control (midazolam). Vials containing cryopreserved hepatocytes were removed from the liquid nitrogen tank and immediately immersed in a 37° C. water bath. The vials were shaken gently until the contents had thawed and were then immediately emptied into 48 mL of pre-warmed HT Medium in a 50 mL conical tube. Cells remaining in the vial were resuspended with 1.0 mL of pre-warmed HT Medium and added to the conical tube. The tube was capped and then gently inverted several times to resuspend the hepatocytes. The cell suspension was centrifuged at 50×g at room temperature for 5 minutes and the supernatant discarded. The cell pellet was loosened by gently swirling the centrifuge tube and was re-suspended in 4 mL of warm Dulbecco's Modified Eagle medium (DMEM). Cell density was determined by a cell counter by Nexcelom, and DMEM medium was added to obtain a target density of 1×10^6 cells/mL. The assay was carried out in 96-well microtiter plates. Test Compounds were incubated at 1 μM with 1×10^6 cells/mL hepatocytes in DMEM for 0, 30, 60, 120 and 240 minutes. The incubation was carried out with gentle shaking at 37° C. under a humid atmosphere of 95% air/5% CO2. The volume of the incubation mixture was 37 μL with a final 0.1% DMSO. At each of the time points, the incubation was stopped by adding 150 μL quenching solution (100% acetonitrile, 0.1% formic acid containing bucetin as an internal standard for positive ESI mode). Subsequently, the mixtures were vortexed for 20 min and centrifuged at 4,000 RPM at 10° C. The supernatant (80 μL) was transferred to a clean 96-well plate and analyzed by LC-MS/MS. Midazolam at 1 μM with a final 0.1% DMSO was included as a positive control to verify assay performance. The percent parent remaining, intrinsic and predicted hepatic clearance and t1/2 were calculated. All samples were analyzed by LC-MS/MS using an AB Sciex API 4000 instrument, coupled to a Shimadzu LC-20AD LC Pump system. Separation was achieved using a Waters Atlantis T3 dC18 reverse phase HPLC column (20 mm×2.1 mm) at a flow rate of 0.5 mL/min. The mobile phase consisted of 0.1% formic acid in water (solvent A) and 0.1% formic acid in 100% acetonitrile (solvent B). Elution conditions are detailed below.
(§2) The ion optics of each test compound were optimized for their declustering potential (DP), […] (CE), collision-cell exit potential (CXP) and used in a selected ion monitoring experiment in the positive ion mode. The peak area ratio of each test compound to internal standard was then evaluated for stability. The extent of metabolism was calculated based on the disappearance of the test compound, compared to its initial concentration. The initial rates of clearance of the test compound were calculated using the linear regression plot of semi-log % remaining of the compound versus time. The elimination rate constant (k) of the linear regression plot was then used to determine t1/2 and the intrinsic clearance (CLint) using the following formula, where Chepatocyte (million cells/mL) is the cell density of the incubation:
(§3) The predicted hepatic clearance (CLhep) was calculated using the well stirred method with the following formula with CLint (in vivo) normalized based on liver weight: […]
(§4) The relevant physiological parameters of liver weight, blood flow, and hepatocellularity for various species are listed below: […]

[3] = Metabolic stability in human hepatocytes; format: in vitro ADME; details: cryopreserved hepatocytes, 1 μM, 1×10^6 cells/mL, 0-240 min; for half-life at 1 μM: read-out: Human t1/2
Method: as §1, §2, §3, §4

T1 sequence (P43220 24-463): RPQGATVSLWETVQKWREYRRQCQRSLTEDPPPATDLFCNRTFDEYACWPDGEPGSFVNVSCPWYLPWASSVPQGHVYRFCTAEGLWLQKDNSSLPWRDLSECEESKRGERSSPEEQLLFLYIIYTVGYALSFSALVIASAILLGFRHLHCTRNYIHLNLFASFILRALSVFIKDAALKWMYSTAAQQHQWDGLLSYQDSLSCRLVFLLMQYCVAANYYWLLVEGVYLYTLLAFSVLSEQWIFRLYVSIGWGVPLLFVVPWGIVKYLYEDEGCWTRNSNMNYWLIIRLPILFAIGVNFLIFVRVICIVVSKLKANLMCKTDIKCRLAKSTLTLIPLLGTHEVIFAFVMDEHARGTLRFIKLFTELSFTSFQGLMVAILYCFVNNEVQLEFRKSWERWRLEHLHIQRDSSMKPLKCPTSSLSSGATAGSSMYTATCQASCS

Row | EC50 [1] | Emax [1] | Human Clhep predicted [2] | CLint scaled at 1 μM [3] | half-life at 1 μM [3] | Structure (SMILES)
1 | < 10 nM | > 85% | 4.76 ± 0.68 mL/min/kg | 6.18 ± 0.7 mL/min/kg | 4.46 ± 0.67 min | COc1cc(C(=O)O)cc2c1nc(CN1CCC(c3cccc(OCc4ccc(C#N)cc4F)n3)CC1)n2C[C@@H]1CCO1 [Compound 8, (S)-2-((4-(6-((4-Cyano-2-fluorobenzyl)oxy)pyridin-2-yl)piperidin-1-yl)methyl)-4-methoxy-1-(oxetan-2-ylmethyl)-1H-benzo[d]imidazole-6-carboxylic acid]
2 | < 10 nM | > 85% | 8.42 ± 0.92 mL/min/kg | 14.2 ± 0.97 mL/min/kg | 170 ± 11.6 min | COc1cc(C(=O)O)cc2c1nc(CN1CCC(c3cccc(OCc4ccc(C#N)cc4F)n3)CC1)n2Cc1cncs1 [Compound 1, 2-((4-(6-((4-Cyano-2-fluorobenzyl)oxy)pyridin-2-yl)piperidin-1-yl)methyl)-4-methoxy-1-(thiazol-5-ylmethyl)-1H-benzo[d]imidazole-6-carboxylic acid]
